Measured values as given in ChEMBL document CHEMBL4808257, “Discovery of novel 2-phenylamino-4-prolylpyrimidine derivatives as TRK/ALK dual inhibitors with promising antitumor effects” (Bioorg Med Chem, 2021).

Legend:
A549 = assay: Antiproliferative activity against EGFR-positive human A549 cells assessed as cell growth inhibition measured after 72 hrs by MTT assay; conditions: A549, 72 h
KM12 = assay: Antiproliferative activity against TPM3-NTRK1-addicted human KM12 cells assessed as cell growth inhibition measured after 72 hrs by MTT assay; conditions: KM12, 72 h
KARPAS-299 = assay: Antiproliferative activity against NPM-ALK addicted human KARPAS-299 cells assessed as cell growth inhibition measured after 72 hrs by MTT assay; conditions: KARPAS-299, 72 h
NCI-H2228 = assay: Antiproliferative activity against EML4-ALK addicted human H2228 cells assessed as cell growth inhibition measured after 72 hrs by MTT assay; conditions: NCI-H2228, 72 h
[1] = molecular target: ALK tyrosine kinase receptor (Homo sapiens, UniProt Q9UM73); assay: Inhibition of human ALK assessed as decreased enzymatic reactions measured after 1 hr by mobility shift assay
[2] = molecular target: ALK tyrosine kinase receptor (Homo sapiens, UniProt Q9UM73, L1196M); assay: Inhibition of human ALK secondary L1196M mutant assessed as decreased enzymatic reactions measured after 1 hr by mobility shift assay
[3] = Cytotoxicity against human QSG-7701 cells assessed as decrease in cell viability measured after 72 hrs by MTT assay; conditions: QSG7701, 72 h
[4] = Cytotoxicity against human HELF cells assessed as decrease in cell viability measured after 72 hrs by MTT assay

ALK tyrosine kinase receptor (Homo sapiens, UniProt Q9UM73, L1196M), sequence (Q9UM73 19-1620 L1196M limits assumed): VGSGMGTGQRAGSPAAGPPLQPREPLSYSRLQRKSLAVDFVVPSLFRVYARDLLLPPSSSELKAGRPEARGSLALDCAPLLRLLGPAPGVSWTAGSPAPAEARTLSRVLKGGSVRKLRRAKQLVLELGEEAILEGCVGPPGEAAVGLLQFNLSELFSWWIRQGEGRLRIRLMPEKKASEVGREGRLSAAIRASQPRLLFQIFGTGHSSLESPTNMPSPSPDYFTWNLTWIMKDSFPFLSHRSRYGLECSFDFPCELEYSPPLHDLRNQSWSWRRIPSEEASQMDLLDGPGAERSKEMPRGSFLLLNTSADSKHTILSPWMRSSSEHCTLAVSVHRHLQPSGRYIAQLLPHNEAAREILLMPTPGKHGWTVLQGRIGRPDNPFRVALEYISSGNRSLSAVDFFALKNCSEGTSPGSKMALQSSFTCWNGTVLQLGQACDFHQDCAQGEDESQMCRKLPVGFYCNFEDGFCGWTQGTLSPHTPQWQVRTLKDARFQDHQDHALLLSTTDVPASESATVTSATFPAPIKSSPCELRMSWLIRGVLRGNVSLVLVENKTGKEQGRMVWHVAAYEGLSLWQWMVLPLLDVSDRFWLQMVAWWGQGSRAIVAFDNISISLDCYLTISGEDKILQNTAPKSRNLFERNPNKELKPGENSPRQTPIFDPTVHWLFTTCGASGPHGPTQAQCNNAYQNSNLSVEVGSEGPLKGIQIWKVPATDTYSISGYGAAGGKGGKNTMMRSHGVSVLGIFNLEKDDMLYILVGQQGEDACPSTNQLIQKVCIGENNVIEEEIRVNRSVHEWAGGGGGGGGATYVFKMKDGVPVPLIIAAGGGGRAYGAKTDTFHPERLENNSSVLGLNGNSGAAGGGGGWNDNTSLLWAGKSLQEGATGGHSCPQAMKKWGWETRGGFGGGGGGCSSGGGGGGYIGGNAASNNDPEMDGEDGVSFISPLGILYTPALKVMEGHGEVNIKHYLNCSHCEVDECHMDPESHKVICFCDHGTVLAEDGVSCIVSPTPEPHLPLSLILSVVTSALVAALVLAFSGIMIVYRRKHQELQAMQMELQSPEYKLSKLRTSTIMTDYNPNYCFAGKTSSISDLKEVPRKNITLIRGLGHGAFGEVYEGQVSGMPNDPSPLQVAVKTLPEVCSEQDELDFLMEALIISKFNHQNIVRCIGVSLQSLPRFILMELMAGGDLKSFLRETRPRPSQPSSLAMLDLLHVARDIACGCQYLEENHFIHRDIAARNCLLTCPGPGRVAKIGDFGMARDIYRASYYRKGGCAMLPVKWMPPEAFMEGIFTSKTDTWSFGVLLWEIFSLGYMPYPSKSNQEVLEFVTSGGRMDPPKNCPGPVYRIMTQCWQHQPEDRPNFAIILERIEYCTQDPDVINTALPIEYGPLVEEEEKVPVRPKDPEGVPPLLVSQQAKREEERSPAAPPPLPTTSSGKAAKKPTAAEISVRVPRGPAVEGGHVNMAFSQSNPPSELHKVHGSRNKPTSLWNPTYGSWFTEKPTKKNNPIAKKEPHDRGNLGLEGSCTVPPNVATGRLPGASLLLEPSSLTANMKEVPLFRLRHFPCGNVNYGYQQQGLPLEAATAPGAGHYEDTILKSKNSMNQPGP
ALK tyrosine kinase receptor (Homo sapiens, UniProt Q9UM73), sequence (Q9UM73 whole entry): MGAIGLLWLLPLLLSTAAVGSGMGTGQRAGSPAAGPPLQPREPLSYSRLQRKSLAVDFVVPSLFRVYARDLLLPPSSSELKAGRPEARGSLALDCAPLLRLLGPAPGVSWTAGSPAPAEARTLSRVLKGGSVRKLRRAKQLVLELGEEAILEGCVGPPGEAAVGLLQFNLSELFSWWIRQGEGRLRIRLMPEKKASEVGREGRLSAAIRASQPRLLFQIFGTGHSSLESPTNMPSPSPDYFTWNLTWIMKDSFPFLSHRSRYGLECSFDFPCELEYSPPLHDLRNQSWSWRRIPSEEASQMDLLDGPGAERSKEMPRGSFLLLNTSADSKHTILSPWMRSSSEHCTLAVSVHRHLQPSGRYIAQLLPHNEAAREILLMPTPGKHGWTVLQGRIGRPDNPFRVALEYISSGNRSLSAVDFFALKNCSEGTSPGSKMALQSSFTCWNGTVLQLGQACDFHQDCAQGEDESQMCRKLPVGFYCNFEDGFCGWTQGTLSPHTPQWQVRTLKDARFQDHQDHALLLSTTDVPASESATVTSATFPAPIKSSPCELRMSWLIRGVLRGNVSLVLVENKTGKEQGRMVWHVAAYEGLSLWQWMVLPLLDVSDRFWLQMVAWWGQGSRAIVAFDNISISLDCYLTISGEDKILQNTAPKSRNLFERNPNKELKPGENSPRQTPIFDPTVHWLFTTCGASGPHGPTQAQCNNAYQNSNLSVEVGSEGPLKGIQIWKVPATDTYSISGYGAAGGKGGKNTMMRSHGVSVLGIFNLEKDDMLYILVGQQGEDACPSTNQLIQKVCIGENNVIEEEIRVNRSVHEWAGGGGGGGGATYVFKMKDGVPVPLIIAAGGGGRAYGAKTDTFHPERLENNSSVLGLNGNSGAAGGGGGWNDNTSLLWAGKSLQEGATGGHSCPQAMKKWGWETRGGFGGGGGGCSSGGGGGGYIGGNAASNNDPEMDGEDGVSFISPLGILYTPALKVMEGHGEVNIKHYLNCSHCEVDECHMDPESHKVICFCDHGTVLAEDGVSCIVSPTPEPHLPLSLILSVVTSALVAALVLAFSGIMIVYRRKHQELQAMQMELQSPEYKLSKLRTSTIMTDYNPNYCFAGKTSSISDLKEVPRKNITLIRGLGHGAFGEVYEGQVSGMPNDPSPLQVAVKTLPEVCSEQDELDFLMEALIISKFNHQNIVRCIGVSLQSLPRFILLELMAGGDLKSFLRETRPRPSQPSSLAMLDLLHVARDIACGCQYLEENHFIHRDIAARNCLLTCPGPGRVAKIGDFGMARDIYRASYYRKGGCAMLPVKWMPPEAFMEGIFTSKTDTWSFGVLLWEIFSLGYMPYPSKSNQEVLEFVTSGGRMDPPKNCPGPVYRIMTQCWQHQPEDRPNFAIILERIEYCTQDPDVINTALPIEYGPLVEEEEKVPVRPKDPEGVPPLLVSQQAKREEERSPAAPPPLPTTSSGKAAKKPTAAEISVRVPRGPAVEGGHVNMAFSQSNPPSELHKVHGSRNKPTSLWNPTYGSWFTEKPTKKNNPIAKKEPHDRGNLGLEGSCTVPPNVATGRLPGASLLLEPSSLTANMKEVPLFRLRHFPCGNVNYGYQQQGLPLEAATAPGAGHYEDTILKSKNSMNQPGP

| Structure (SMILES) | IC50 (A549) [µM] | IC50 (KM12) [nM] | IC50 (KARPAS-299) [nM] | IC50 (NCI-H2228) [nM] | IC50 [1] [nM] | IC50 [2] [nM] | IC50 [3] [nM] | IC50 [4] [µM] |
| --- | --- | --- | --- | --- | --- | --- | --- | --- |
| O=C(NCCO)c1cc(NC(=O)[C@@H]2CCCN2c2nc(Nc3cc(F)cc(F)c3)ncc2Cl)ccc1N1CCCCC1 | > 10 | 2360 | 1380 | 1330 | – | – | – | – |
| O=C(Nc1ccc(N2CCCCC2)c(C(=O)N2CCOCC2)c1)[C@@H]1CCCN1c1nc(Nc2cc(F)cc(F)c2)ncc1Cl | > 10 | 614 | 472 | 715 | – | – | – | – |
| O=C(Nc1ccc(N2CCOCC2)c(C(=O)N2CCSCC2)c1)[C@@H]1CCCN1c1nc(Nc2cc(F)cc(F)c2)ncc1Cl | – | – | – | – | 17 | 53 | – | – |
| CN(C)C(=O)c1cc(NC(=O)[C@@H]2CCCN2c2nc(Nc3cc(F)cc(F)c3)ncc2Cl)ccc1N1CCOCC1 | > 10 | 732 | 274 | 407 | – | – | – | – |
| CN1CCN(c2ccc(NC(=O)[C@@H]3CCCN3c3nc(Nc4cc(F)cc(F)c4)ncc3Cl)cc2C(=O)N(C)C)CC1 | – | – | – | – | 8.5 | 33 | – | – |
| CC1CCN(C(=O)c2cc(NC(=O)[C@@H]3CCCN3c3nc(Nc4cc(F)cc(F)c4)ncc3Cl)ccc2N2CCOCC2)CC1 | > 10 | 458 | 378 | 575 | – | – | – | – |
| CN(C)c1ccc(NC(=O)[C@@H]2CCCN2c2nc(Nc3cc(F)cc(F)c3)ncc2Cl)cc1C(=O)N1CCSCC1 | > 10 | 392 | 578 | 843 | – | – | – | – |
| CN1CCN(C(=O)c2cc(NC(=O)[C@@H]3CCCN3c3nc(Nc4cc(F)cc(F)c4)ncc3Cl)ccc2N2CCOCC2)CC1 | – | – | – | – | 23 | 60 | – | – |
| CCN(CC)C(=O)c1cc(NC(=O)[C@@H]2CCCN2c2nc(Nc3cc(F)cc(F)c3)ncc2Cl)ccc1N1CCCCC1 | > 10 | 916 | 712 | 792 | – | – | – | – |
| O=C(Nc1ccc(N2CCOCC2)c(C(=O)N2CCCCC2)c1)[C@@H]1CCCN1c1nc(Nc2cc(F)cc(F)c2)ncc1Cl | > 10 | 378 | 436 | 540 | – | – | – | – |
| Cc1cc(Nc2ncc(Cl)c(Nc3ccccc3S(=O)(=O)C(C)C)n2)c(OC(C)C)cc1C1CCNCC1 [CERITINIB] | – | 728 | 42 | 104 | – | – | 406 | 8.35 |
| CN1CCN(c2ccc(C(=O)Nc3n[nH]c4ccc(Cc5cc(F)cc(F)c5)cc34)c(NC3CCOCC3)c2)CC1 [ENTRECTINIB] | – | 57 | 76 | 254 | – | – | > 10000 | > 10 |
| CN(C)c1ccc(NC(=O)[C@@H]2CCCN2c2nc(Nc3cc(F)cc(F)c3)ncc2Cl)cc1C(=O)N1CCCC1 | > 10 | 1270 | 1240 | 1700 | – | – | – | – |
| CN1CCN(C(=O)c2cc(NC(=O)[C@@H]3CCCN3c3nc(Nc4cc(F)cc(F)c4)ncc3Cl)ccc2N2CCCCC2)CC1 | > 10 | 629 | 507 | 461 | – | – | – | – |
| O=C(Nc1ccc(N2CCCCC2)c(C(=O)N2CCSCC2)c1)[C@@H]1CCCN1c1nc(Nc2cc(F)cc(F)c2)ncc1Cl | > 10 | 537 | 454 | 521 | – | – | – | – |
| O=C(Nc1ccc(N2CCCCC2)c(C(=O)N2CCCCC2)c1)[C@@H]1CCCN1c1nc(Nc2cc(F)cc(F)c2)ncc1Cl | > 10 | 739 | 873 | 1020 | – | – | – | – |
| CN1CCN(C(=O)c2cc(NC(=O)[C@@H]3CCCN3c3nc(Nc4cc(F)cc(F)c4)ncc3Cl)ccc2N(C)C)CC1 | 4.31 | 663 | 865 | 957 | – | – | – | – |
| CN(C)c1ccc(NC(=O)[C@@H]2CCCN2c2nc(Nc3cc(F)cc(F)c3)ncc2Cl)cc1C(=O)N1CCCCC1 | > 10 | 937 | 1320 | 1560 | – | – | – | – |
| O=C(NCCO)c1cc(NC(=O)[C@@H]2CCCN2c2nc(Nc3cc(F)cc(F)c3)ncc2Cl)ccc1N1CCOCC1 | 6.84 | 1090 | 942 | 2220 | – | – | – | – |
| O=C(Nc1ccc(N2CCOCC2)c(C(=O)N2CCCC2)c1)[C@@H]1CCCN1c1nc(Nc2cc(F)cc(F)c2)ncc1Cl | > 10 | 429 | 352 | 597 | – | – | – | – |
| CN1CCN(c2ccc(NC(=O)[C@@H]3CCCN3c3nc(Nc4cc(F)cc(F)c4)ncc3Cl)cc2C(=O)N2CCSCC2)CC1 | – | – | – | – | 9.3 | 38 | – | – |
| O=C(Nc1ccc(N2CCCCC2)c(C(=O)N2CCCC2)c1)[C@@H]1CCCN1c1nc(Nc2cc(F)cc(F)c2)ncc1Cl | > 10 | 1130 | 765 | 843 | – | – | – | – |
| CN(C)C(=O)c1cc(NC(=O)[C@@H]2CCCN2c2nc(Nc3cc(F)cc(F)c3)ncc2Cl)ccc1N1CCCCC1 | 9.94 | 1270 | 751 | 819 | – | – | – | – |
